{
  "source": "PubChem BioAssay AID258",
  "about": "(DTP/NCI, 2004)",
  "test_system": "CD2F1 mice, L1210 leukemia sc, survival T/C",
  "assay": "NCI In Vivo Anticancer Drug Screen. Data for tumor model L1210 Leukemia (subcutaneous) in CD2F1 (CDF1) mice",
  "conditions": "endpoint: median survival time, higher = longer survival",
  "in_short": "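Read-out: survival or tumor size. Value = treated (T) / vehicle control (C). Transplantable tumor in mice.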",
  "key": {"[1]": {"conditions": "dose: 32.0 mg/kg/injection, schedule: Q01DX009 (ip), vehicle: water"}},
  "note": "“And” between values parts separate entries of the source, which are not always exact repeats. Equal entries are not always repeated. Inconclusive results and toxic doses are left out.",
  "data": [
    {"compound": "O=C1c2ccccc2C(=O)c2c(NCCNCCO)ccc(NCCNCCO)c21", "values": [
      {"measurement": "T/C", "setting": "dose: 0.5 mg/kg/injection, schedule: Q01DX009 (ip), vehicle: saline with Tween-80", "value": "97 % of control"},
      {"measurement": "T/C", "setting": "dose: 0.5 mg/kg/injection, schedule: Q01DX009 (ip), vehicle: saline", "value": "97 % of control"},
      {"measurement": "T/C", "setting": "dose: 1.0 mg/kg/injection, schedule: Q01DX009 (ip), vehicle: saline with Tween-80", "value": "98 % of control"},
      {"measurement": "T/C", "setting": "dose: 1.0 mg/kg/injection, schedule: Q01DX009 (ip), vehicle: saline", "value": "102 % of control and 106 % of control and 86 % of control"},
      {"measurement": "T/C", "setting": "dose: 2.0 mg/kg/injection, schedule: Q01DX009 (ip), vehicle: saline with Tween-80", "value": "101 % of control"},
      {"measurement": "T/C", "setting": "dose: 2.0 mg/kg/injection, schedule: Q01DX009 (ip), vehicle: saline", "value": "102 % of control and 108 % of control"},
      {"measurement": "T/C", "setting": "dose: 4.0 mg/kg/injection, schedule: Q01DX009 (ip), vehicle: Klucel (hydroxypropylcellulose) (HPC)", "value": "98 % of control"},
      {"measurement": "T/C", "setting": "dose: 4.0 mg/kg/injection, schedule: Q01DX009 (ip), vehicle: saline", "value": "105 % of control and 97 % of control"},
      {"measurement": "T/C", "setting": "dose: 4.0 mg/kg/injection, schedule: Q01DX009 (ip), vehicle: water", "value": "101 % of control"},
      {"measurement": "T/C", "setting": "dose: 4.0 mg/kg/injection, schedule: Q01DX009 (oral), vehicle: saline", "value": "94 % of control"},
      {"measurement": "T/C", "setting": "dose: 4.0 mg/kg/injection, schedule: Q01DX009 (sc), vehicle: Klucel (hydroxypropylcellulose) (HPC)", "value": "114 % of control and 124 % of control"},
      {"measurement": "T/C", "setting": "dose: 8.0 mg/kg/injection, schedule: Q01DX005 (oral), vehicle: Klucel (hydroxypropylcellulose) (HPC)", "value": "99 % of control"},
      {"measurement": "T/C", "setting": "dose: 8.0 mg/kg/injection, schedule: Q01DX005 (oral), vehicle: water", "value": "96 % of control"},
      {"measurement": "T/C", "setting": "dose: 8.0 mg/kg/injection, schedule: Q01DX009 (ip), vehicle: Klucel (hydroxypropylcellulose) (HPC)", "value": "122 % of control and 112 % of control"},
      {"measurement": "T/C", "setting": "dose: 8.0 mg/kg/injection, schedule: Q01DX009 (ip), vehicle: saline", "value": "93 % of control"},
      {"measurement": "T/C", "setting": "dose: 8.0 mg/kg/injection, schedule: Q01DX009 (ip), vehicle: water", "value": "104 % of control"},
      {"measurement": "T/C", "setting": "dose: 8.0 mg/kg/injection, schedule: Q01DX009 (oral), vehicle: saline", "value": "96 % of control"},
      {"measurement": "T/C", "setting": "dose: 8.0 mg/kg/injection, schedule: Q01DX009 (sc), vehicle: water", "value": "156 % of control"},
      {"measurement": "T/C", "setting": "dose: 16.0 mg/kg/injection, schedule: Q01DX005 (oral), vehicle: Klucel (hydroxypropylcellulose) (HPC)", "value": "106 % of control"},
      {"measurement": "T/C", "setting": "dose: 16.0 mg/kg/injection, schedule: Q01DX005 (oral), vehicle: water", "value": "96 % of control"},
      {"measurement": "T/C", "setting": "dose: 16.0 mg/kg/injection, schedule: Q01DX009 (ip), vehicle: Klucel (hydroxypropylcellulose) (HPC)", "value": "108 % of control"},
      {"measurement": "T/C", "setting": "dose: 16.0 mg/kg/injection, schedule: Q01DX009 (ip), vehicle: water", "value": "102 % of control"},
      {"measurement": "T/C", "setting": "dose: 16.0 mg/kg/injection, schedule: Q01DX009 (oral), vehicle: saline", "value": "96 % of control"},
      {"measurement": "T/C", "setting": "dose: 16.0 mg/kg/injection, schedule: Q01DX009 (sc), vehicle: Klucel (hydroxypropylcellulose) (HPC)", "value": "177 % of control and 122 % of control and 243 % of control"},
      {"measurement": "T/C", "setting": "dose: 16.0 mg/kg/injection, schedule: Q01DX009 (sc), vehicle: water", "value": "578 % of control"},
      {"measurement": "T/C", "setting": "dose: 32.0 mg/kg/injection, schedule: Q01DX005 (oral), vehicle: Klucel (hydroxypropylcellulose) (HPC)", "value": "103 % of control"},
      {"measurement": "T/C", "setting": "dose: 32.0 mg/kg/injection, schedule: Q01DX005 (oral), vehicle: water", "value": "99 % of control"},
      {"measurement": "T/C", "setting": "dose: 32.0 mg/kg/injection, schedule: Q01DX009 (ip), vehicle: Klucel (hydroxypropylcellulose) (HPC)", "value": "120 % of control and 119 % of control"},
      {"measurement": "T/C", "setting": "dose: 32.0 mg/kg/injection, schedule: Q01DX009 (ip), vehicle: saline", "value": "104 % of control"},
      {"measurement": "T/C", "setting": "[1]", "value": "111 % of control"},
      {"measurement": "T/C", "setting": "dose: 32.0 mg/kg/injection, schedule: Q01DX009 (oral), vehicle: saline", "value": "94 % of control"},
      {"measurement": "T/C", "setting": "dose: 32.0 mg/kg/injection, schedule: Q01DX009 (sc), vehicle: Klucel (hydroxypropylcellulose) (HPC)", "value": "200 % of control and 225 % of control"},
      {"measurement": "T/C", "setting": "dose: 32.0 mg/kg/injection, schedule: Q01DX009 (sc), vehicle: water", "value": "243 % of control"},
      {"measurement": "T/C", "setting": "dose: 64.0 mg/kg/injection, schedule: Q01DX005 (oral), vehicle: Klucel (hydroxypropylcellulose) (HPC)", "value": "93 % of control"},
      {"measurement": "T/C", "setting": "dose: 64.0 mg/kg/injection, schedule: Q01DX005 (oral), vehicle: water", "value": "103 % of control"},
      {"measurement": "T/C", "setting": "dose: 64.0 mg/kg/injection, schedule: Q01DX009 (ip), vehicle: saline", "value": "108 % of control and 89 % of control"},
      {"measurement": "T/C", "setting": "dose: 64.0 mg/kg/injection, schedule: Q01DX009 (oral), vehicle: saline", "value": "97 % of control"},
      {"measurement": "T/C", "setting": "dose: 64.0 mg/kg/injection, schedule: Q01DX009 (sc), vehicle: Klucel (hydroxypropylcellulose) (HPC)", "value": "92 % of control"},
      {"measurement": "T/C", "setting": "dose: 128.0 mg/kg/injection, schedule: Q01DX005 (oral), vehicle: Klucel (hydroxypropylcellulose) (HPC)", "value": "97 % of control"},
      {"measurement": "T/C", "setting": "dose: 128.0 mg/kg/injection, schedule: Q01DX005 (oral), vehicle: water", "value": "99 % of control"},
      {"measurement": "T/C", "setting": "dose: 128.0 mg/kg/injection, schedule: Q01DX009 (ip), vehicle: Klucel (hydroxypropylcellulose) (HPC)", "value": "122 % of control"},
      {"measurement": "T/C", "setting": "dose: 128.0 mg/kg/injection, schedule: Q01DX009 (ip), vehicle: saline", "value": "101 % of control"},
      {"measurement": "T/C", "setting": "dose: 128.0 mg/kg/injection, schedule: Q01DX009 (ip), vehicle: water", "value": "114 % of control"},
      {"measurement": "T/C", "setting": "dose: 128.0 mg/kg/injection, schedule: Q01DX009 (oral), vehicle: saline", "value": "102 % of control"},
      {"measurement": "T/C", "setting": "dose: 128.0 mg/kg/injection, schedule: Q01DX009 (sc), vehicle: Klucel (hydroxypropylcellulose) (HPC)", "value": "211 % of control"},
      {"measurement": "T/C", "setting": "dose: 256.0 mg/kg/injection, schedule: Q01DX005 (oral), vehicle: Klucel (hydroxypropylcellulose) (HPC)", "value": "98 % of control"},
      {"measurement": "T/C", "setting": "dose: 256.0 mg/kg/injection, schedule: Q01DX009 (oral), vehicle: saline", "value": "101 % of control"},
      {"measurement": "T/C", "setting": "dose: 512.0 mg/kg/injection, schedule: Q01DX009 (oral), vehicle: saline", "value": "93 % of control"}
    ]},
    {"compound": "COc1ccc2[nH]c3ccc4cc[n+](CCN5CCC(C6CCN(CC[n+]7ccc8ccc9[nH]c%10ccc(OC)cc%10c9c8c7)CC6)CC5)cc4c3c2c1", "values": [
      {"measurement": "T/C", "setting": "dose: 6.9 mg/kg/injection, schedule: Q01DX009 (ip), vehicle: water", "value": "104 % of control"},
      {"measurement": "T/C", "setting": "dose: 11.5 mg/kg/injection, schedule: Q01DX009 (ip), vehicle: water", "value": "107 % of control"},
      {"measurement": "T/C", "setting": "dose: 12.5 mg/kg/injection, schedule: Q01DX009 (ip), vehicle: Klucel (hydroxypropylcellulose) (HPC)", "value": "204 % of control and 93 % of control"},
      {"measurement": "T/C", "setting": "[1]", "value": "107 % of control"},
      {"measurement": "T/C", "setting": "dose: 50.0 mg/kg/injection, schedule: Q01DX009 (ip), vehicle: Klucel (hydroxypropylcellulose) (HPC)", "value": "340 % of control"}
    ]}
  ]
}
